Measurements from publication PMC12010937, “Evaluation of FXR Activity in Pollutants Identified in Sewage Sludge and Subsequent in Vitro and in Vivo Characterization of Metabolic Effects of Triphenyl Phosphate” (Environmental Health Perspectives, 2025).
Read-outs that look alike come from different tables or passages of the source.

System: C57BL/6N mice
Conditions: TPHP-L group, liver
[1] = adduct [M+Na]+, first of two TG 52:3 lines
[2] = adduct [M+Na]+, second of two TG 52:3 lines

`O=P(Oc1ccccc1)(Oc1ccccc1)Oc1ccccc1` [TPHP, triphenyl phosphate] was tested, and the “Z-score of CAR 6:0” value (adduct [M+H]+) was 0.06, the “Z-score of CAR 10:0” value (adduct [M+H]+) was 0.42 and the “Z-score of CAR 12:0” value (adduct [M+H]+) was 0.80. For the same molecule, the “Z-score of CAR 16:2” value (adduct [M+H]+) was -0.06, the “Z-score of CAR 18:2” value (adduct [M+H]+) was -0.03 and the “Z-score of CAR 18:4” value (adduct [M+H]+) was 0.78. For the same molecule, the “Z-score of CAR 20:4” value (adduct [M+H]+) was 0.82, the “Z-score of NAE 14:0” value (adduct [M+H]+) was -0.48 and the “Z-score of NAE 20:5” value (adduct [M+H]+) was 1.00. For the same molecule, the “Z-score of PC 40:6” value (adduct [M+H]+) was -0.17, the “Z-score of PS 36:4” value (adduct [M+H]+) was 0.68 and the “Z-score of SM 27:5;O2” value (adduct [M+H]+) was 0.55. For the same molecule, the “Z-score of SM 28:3;O3” value (adduct [M+H]+) was 0.44, the “Z-score of SM 31:3;O3” value (adduct [M+H]+) was -0.11 and the “Z-score of SM 41:2;O2” value (adduct [M+H]+) was 0.71. The “average intensity of CAR 6:0” value (adduct [M+H]+) was 2396721, the “average intensity of CAR 10:0” value (adduct [M+H]+) was 1504841 and the “average intensity of CAR 12:0” value (adduct [M+H]+) was 2823213. The “average intensity of CAR 16:2” value (adduct [M+H]+) was 1645671, the “average intensity of CAR 18:2” value (adduct [M+H]+) was 11661319 and the “average intensity of CAR 18:4” value (adduct [M+H]+) was 10920113. The “average intensity of CAR 20:4” value (adduct [M+H]+) was 36994205, the “average intensity of NAE 14:0” value (adduct [M+H]+) was 681808 and the “average intensity of NAE 20:5” value (adduct [M+H]+) was 53457329. The “average intensity of PC 40:6” value (adduct [M+H]+) was 25730542, the “average intensity of PS 36:4” value (adduct [M+H]+) was 1577436 and the “average intensity of SM 27:5;O2” value (adduct [M+H]+) was 18375860. The “average intensity of SM 28:3;O3” value (adduct [M+H]+) was 1750893, the “average intensity of SM 31:3;O3” value (adduct [M+H]+) was 1688236 and the “average intensity of SM 41:2;O2” value (adduct [M+H]+) was 9894007. The “Z-score of BMP 25:4” value (adduct [M+NH4]+) was -0.15, the “Z-score of BMP 30:5” value (adduct [M+NH4]+) was -0.42 and the “Z-score of BMP 38:4” value (adduct [M+NH4]+) was -0.33. The “Z-score of PG 21:2” value (adduct [M+NH4]+) was -0.09, the “Z-score of PI 39:10” value (adduct [M+NH4]+) was -0.15 and the “Z-score of TG 48:11” value (adduct [M+NH4]+) was -0.30. The “Z-score of TG 55:4” value (adduct [M+NH4]+) was -0.04, the “average intensity of BMP 25:4” value (adduct [M+NH4]+) was 28243710 and the “average intensity of BMP 30:5” value (adduct [M+NH4]+) was 997136. For the same molecule, the “average intensity of BMP 38:4” value (adduct [M+NH4]+) was 9007436, the “average intensity of PG 21:2” value (adduct [M+NH4]+) was 4648685 and the “average intensity of PI 39:10” value (adduct [M+NH4]+) was 2117103. The “average intensity of TG 48:11” value (adduct [M+NH4]+) was 18422444, the “average intensity of TG 55:4” value (adduct [M+NH4]+) was 5767515 and the “Z-score of Cer 42:1;O2” value (adduct [M+Na]+) was -0.14. For the same molecule, the “Z-score of Cer 64:6;O2” value (adduct [M+Na]+) was 0.49, the “Z-score of DG 19:1” value (adduct [M+Na]+) was -0.58 and the “Z-score of DG 26:5” value (adduct [M+Na]+) was -0.57. For the same molecule, the “Z-score of DG 26:6” value (adduct [M+Na]+) was -0.39, the “Z-score of PC 29:5” value (adduct [M+Na]+) was -0.26 and the “Z-score of PC 38:6” value (adduct [M+Na]+) was -0.37. For the same molecule, the “Z-score of PC 42:9” value (adduct [M+Na]+) was -0.33, the “Z-score of PS 40:7” value (adduct [M+Na]+) was 0.24 and the “Z-score of TG 52:2” value (adduct [M+Na]+) was 0.37. The “Z-score of TG 52:4” value (adduct [M+Na]+) was 0.20, the “average intensity of Cer 42:1;O2” value (adduct [M+Na]+) was 2208919 and the “average intensity of Cer 64:6;O2” value (adduct [M+Na]+) was 16081083. For the same molecule, the “average intensity of DG 19:1” value (adduct [M+Na]+) was 5508, the “average intensity of DG 26:5” value (adduct [M+Na]+) was 1202226 and the “average intensity of DG 26:6” value (adduct [M+Na]+) was 565410. For the same molecule, the “average intensity of PC 29:5” value (adduct [M+Na]+) was 8118187, the “average intensity of PC 38:6” value (adduct [M+Na]+) was 13132954 and the “average intensity of PC 42:9” value (adduct [M+Na]+) was 1167997. The “average intensity of PS 40:7” value (adduct [M+Na]+) was 3607887, the “average intensity of TG 52:2” value (adduct [M+Na]+) was 9167552 and the “average intensity of TG 52:4” value (adduct [M+Na]+) was 2497450. For the same molecule, the “Z-score of TG 52:3” value [1] was 0.19, the “average intensity of TG 52:3” value [1] was 1036928 and the “Z-score of TG 52:3” value [2] was 0.18. For the same molecule, the “average intensity of TG 52:3” value [2] was 8512501, the “Z-score of Cer 40:1;O2” value (adduct [M-H]-) was -0.23 and the “Z-score of Cer 41:1;3O(2OH)” value (adduct [M-H]-) was -0.38. For the same molecule, the “Z-score of Cer 42:1;3O(2OH)” value (adduct [M-H]-) was -0.39, the “Z-score of Cer 43:1;3O(2OH)” value (adduct [M-H]-) was -0.38 and the “Z-score of FA 10:1” value (adduct [M-H]-) was -0.53. For the same molecule, the “Z-score of FA 14:2” value (adduct [M-H]-) was 0.22, the “Z-score of FA 16:2;O” value (adduct [M-H]-) was 0.94 and the “Z-score of FA 19:2;O2” value (adduct [M-H]-) was 0.68. For the same molecule, the “Z-score of PG 34:2” value (adduct [M-H]-) was -0.56, the “Z-score of PG 44:12” value (adduct [M-H]-) was -0.57 and the “Z-score of PI 36:3” value (adduct [M-H]-) was -0.53. For the same molecule, the “Z-score of PI 38:4” value (adduct [M-H]-) was 0.83, the “average intensity of Cer 40:1;O2” value (adduct [M-H]-) was 383914 and the “average intensity of Cer 41:1;3O(2OH)” value (adduct [M-H]-) was 1471085. For the same molecule, the “average intensity of Cer 42:1;3O(2OH)” value (adduct [M-H]-) was 280519, the “average intensity of Cer 43:1;3O(2OH)” value (adduct [M-H]-) was 206714 and the “average intensity of FA 10:1” value (adduct [M-H]-) was 231265. The “average intensity of FA 14:2” value (adduct [M-H]-) was 1600712, the “average intensity of FA 16:2;O” value (adduct [M-H]-) was 1172357 and the “average intensity of FA 19:2;O2” value (adduct [M-H]-) was 7389373. For the same molecule, the “average intensity of PG 34:2” value (adduct [M-H]-) was 228532, the “average intensity of PG 44:12” value (adduct [M-H]-) was 36906 and the “average intensity of PI 36:3” value (adduct [M-H]-) was 498699. The “average intensity of PI 38:4” value (adduct [M-H]-) was 49874871.
